1 molecule from PMC7316388 (European journal of cell biology, 2010) can be followed below.

This test deals with CREB (Mus musculus, UniProt Q01147). In words: chromatin immunoprecipitation, CREB binding to c-fos promoter. The test is classed as cell-based. The conditions noted are these: 100 μM compound with lipofectamine, 24 h, NIH3T3 cells.
Sequence of CREB (Q01147 whole entry): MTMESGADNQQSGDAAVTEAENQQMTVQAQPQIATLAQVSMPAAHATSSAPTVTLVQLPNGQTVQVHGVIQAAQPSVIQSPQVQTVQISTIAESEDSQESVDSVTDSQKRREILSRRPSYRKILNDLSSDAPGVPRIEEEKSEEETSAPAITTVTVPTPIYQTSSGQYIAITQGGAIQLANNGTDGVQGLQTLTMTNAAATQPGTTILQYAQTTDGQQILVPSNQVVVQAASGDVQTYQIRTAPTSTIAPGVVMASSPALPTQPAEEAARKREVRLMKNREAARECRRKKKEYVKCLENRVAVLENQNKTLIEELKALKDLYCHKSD

`O=S(=O)(O)c1cc[c]([Sb](=[O])([OH])[OH])cc1` [NSC13746]: the “% reduction in CREB DNA binding at 100 μM” value was found to be 30%.
